Measurements taken from patent US4526889A, “Epimeric azahomoerythromycin A derivative, intermediates and method of use” (Pfizer Inc., priority 1984, dated 1985).
Converted amounts (≈) assume the structure as drawn. Where two headings read alike, the source gives them in different places.

How the values were obtained:
Assay in all cases: MIC in brain heart infusion (BHI) broth
Serr. mar. 017 = format: cell-based
Description: (§1) Generally twelve 2 fold dilutions of the test compound are employed, with initial concentration of the test drug being in the range of 50 to 200 mcg./ml. The susceptibility (MIC) of the test organism is accepted as the lowest concentration of compound capable of producing complete inhibition of growth as judged by the naked eye. A comparison of the activity of 4"-epi-9-deoxo-9a-methyl-9a-aza-9a-homoerythromycin A (IV) with that of an erythromycin A control is shown in replicate in the Table I.

Strep. pyog. 203 = format: cell-based
Description: as §1

Strep. pneumo. 012 = format: cell-based
Description: as §1

Kleb. pn. 031 = format: cell-based
Description: as §1

Prov. strua. 013 = format: cell-based
Description: as §1

Staph. aur. 005 = format: cell-based; settings: BHI broth, read-out: MIC
Description: as §1

Ent. cloac. 009 = format: cell-based
Description: as §1

Staph. aur. 052 = format: cell-based; settings: BHI broth, read-out: MIC
Description: as §1

Neiss. sic. 000 = format: cell-based
Description: as §1

Staph. epi 111 = format: cell-based
Description: as §1

Staph. aur. 400 = format: cell-based
Description: as §1

Ent. aerog. 040 = format: cell-based
Description: as §1

E. Coli 125 = format: cell-based; settings: Escherichia coli, BHI broth, read-out: MIC
Description: as §1

Kleb. oxy. 024 = format: cell-based
Description: as §1

Strep. faec. 006 = format: cell-based; settings: BHI broth, read-out: MIC
Description: as §1

E. Coli 129 = format: cell-based; settings: Escherichia coli, BHI broth, read-out: MIC
Description: as §1

E. Coli 266 = format: cell-based; settings: Escherichia coli, BHI broth, read-out: MIC
Description: as §1

Kleb. pn. 009 = format: cell-based
Description: as §1

Past. mult. 001 = format: cell-based
Description: as §1

E. Coli 470 = format: cell-based; settings: Escherichia coli
Description: as §1

H. influ. 081 = format: cell-based, Hemophilus influenzae; settings: Haemophilus influenzae
Description: as §1

H. influ. 042 = format: cell-based, Hemophilus influenzae; settings: Haemophilus influenzae
Description: as §1

H. influ. 078 = format: cell-based, Hemophilus influenzae; settings: Haemophilus influenzae
Description: as §1

H. influ. 036 = format: cell-based, Hemophilus influenzae; settings: Haemophilus influenzae
Description: as §1

H. influ. 073 = format: cell-based, Hemophilus influenzae; settings: Haemophilus influenzae
Description: as §1

H. influ. 051 = format: cell-based, Hemophilus influenzae; settings: Haemophilus influenzae
Description: as §1

H. influ. 012 = format: cell-based, Hemophilus influenzae; settings: Haemophilus influenzae
Description: as §1

H. influ. 038 = format: cell-based, Hemophilus influenzae; settings: Haemophilus influenzae
Description: as §1

CC[C@H]1OC(=O)[C@H](C)[C@@H](O[C@H]2C[C@@](C)(OC)[C@@H](O)[C@H](C)O2)[C@H](C)[C@@H](O[C@@H]2O[C@H](C)C[C@H](N(C)C)[C@H]2O)[C@](C)(O)C[C@@H](C)C(=O)[C@H](C)[C@@H](O)[C@]1(C)O [Erythromycin A]
MIC (Serr. mar. 017; 24 h, Day 1): > 50 µg/mL
MIC (Serr. mar. 017; 48 h, Day 2): > 50 µg/mL
MIC (Strep. pyog. 203; 24 h, Day 1): 0.025 µg/mL (≈ 0.0341 µM)
MIC (Strep. pyog. 203; 48 h, Day 2): 0.025 µg/mL (≈ 0.0341 µM)
MIC (Strep. pneumo. 012; 24 h, Day 1): 0.025 µg/mL (≈ 0.0341 µM)
MIC (Strep. pneumo. 012; 48 h, Day 2): 0.025 µg/mL (≈ 0.0341 µM)
MIC (Kleb. pn. 031; 24 h, Day 1): > 50 µg/mL
MIC (Kleb. pn. 031; 48 h, Day 2): > 50 µg/mL
MIC (Prov. strua. 013; 24 h, Day 1): > 50 µg/mL
MIC (Prov. strua. 013; 48 h, Day 2): > 50 µg/mL
MIC (Staph. aur. 005; 24 h, Day 1): 0.05 µg/mL (≈ 0.0681 µM)
MIC (Staph. aur. 005; 48 h, Day 2): 0.05 µg/mL (≈ 0.0681 µM)
MIC (Ent. cloac. 009; 24 h, Day 1): > 50 µg/mL
MIC (Ent. cloac. 009; 48 h, Day 2): > 50 µg/mL
MIC (Staph. aur. 052; 24 h, Day 1): 0.1 µg/mL (≈ 0.136 µM)
MIC (Staph. aur. 052; 48 h, Day 2): 0.1 µg/mL (≈ 0.136 µM)
MIC (Neiss. sic. 000; 24 h): 1.56 µg/mL (≈ 2.13 µM)
MIC (Neiss. sic. 000; 48 h): 3.12 µg/mL (≈ 4.25 µM)
MIC (Staph. epi 111; 24 h, Day 1): 0.05 µg/mL (≈ 0.0681 µM)
MIC (Staph. epi 111; 48 h, Day 2): 0.05 µg/mL (≈ 0.0681 µM)
MIC (Staph. aur. 400; 24 h): 3.12 µg/mL (≈ 4.25 µM)
MIC (Staph. aur. 400; 48 h): 6.25 µg/mL (≈ 8.52 µM)
MIC (Ent. aerog. 040; 24 h, Day 1): > 50 µg/mL
MIC (Ent. aerog. 040; 48 h, Day 2): > 50 µg/mL
MIC (E. Coli 125; 24 h, Day 1): > 50 µg/mL
MIC (E. Coli 125; 48 h, Day 2): > 50 µg/mL
MIC (Kleb. oxy. 024; 24 h, Day 1): > 50 µg/mL
MIC (Kleb. oxy. 024; 48 h, Day 2): > 50 µg/mL
MIC (Strep. faec. 006; 24 h, Day 1): 0.78 µg/mL (≈ 1.06 µM)
MIC (Strep. faec. 006; 48 h, Day 2): 0.78 µg/mL (≈ 1.06 µM)
MIC (E. Coli 129; 24 h, Day 1): > 50 µg/mL
MIC (E. Coli 129; 48 h, Day 2): > 50 µg/mL
MIC (E. Coli 266; 24 h, Day 1): > 50 µg/mL
MIC (E. Coli 266; 48 h, Day 2): > 50 µg/mL
MIC (Kleb. pn. 009; 24 h, Day 1): > 50 µg/mL
MIC (Kleb. pn. 009; 48 h, Day 2): > 50 µg/mL
MIC (Past. mult. 001; 24 h): 1.56 µg/mL (≈ 2.13 µM)
MIC (Past. mult. 001; 48 h): 1.56 µg/mL (≈ 2.13 µM)
MIC (E. Coli 470; 24 h): 3.12 µg/mL (≈ 4.25 µM)
MIC (E. Coli 470; 48 h): 3.12 µg/mL (≈ 4.25 µM)
MIC (H. influ. 081; 24 h): 3.12 µg/mL (≈ 4.25 µM)
MIC (H. influ. 081; 48 h): 3.12 µg/mL (≈ 4.25 µM)
MIC (H. influ. 042; 24 h, Day 1): 1.56 µg/mL (≈ 2.13 µM)
MIC (H. influ. 042; 48 h, Day 2): 1.56 µg/mL (≈ 2.13 µM)
MIC (H. influ. 078; 24 h, Day 1): 1.56 µg/mL (≈ 2.13 µM)
MIC (H. influ. 078; 48 h, Day 2): 1.56 µg/mL (≈ 2.13 µM)
MIC (H. influ. 036; 24 h, Day 1): 6.25 µg/mL (≈ 8.52 µM)
MIC (H. influ. 036; 48 h, Day 2): 3.12 µg/mL (≈ 4.25 µM)
MIC (H. influ. 073; 24 h): 3.12 µg/mL (≈ 4.25 µM)
MIC (H. influ. 073; 48 h): 3.12 µg/mL (≈ 4.25 µM)
MIC (H. influ. 051; 24 h): 3.12 µg/mL (≈ 4.25 µM)
MIC (H. influ. 051; 48 h): 3.12 µg/mL (≈ 4.25 µM)
MIC (H. influ. 012; 24 h, Day 1): 3.12 µg/mL (≈ 4.25 µM)
MIC (H. influ. 012; 48 h, Day 2): 1.56 µg/mL (≈ 2.13 µM)
MIC (H. influ. 038; 24 h): 6.25 µg/mL (≈ 8.52 µM)
MIC (H. influ. 038; 48 h): 3.12 µg/mL (≈ 4.25 µM)
